One block for each molecule: values may come before it.
How the values were obtained:
[1] = target: L-type calcium channel Cav1.2 (CACNA1C) (Homo sapiens, UniProt Q13936); experiment: Selectivity interaction (Eurofins CEREP Diversity Profile (receptors and ion channels)) EUB0000279b CACNA1C; conditions: at 10 µM, read-out: % of control
[2] = test system: Proto-oncogene tyrosine-protein kinase receptor Ret (Homo sapiens), P07949 [M918T]; experiment: (§1) Selectivity interaction (KinomeScan (DiscoverX)) EUB0000666a RET; conditions: at 10 µM
Chain of Proto-oncogene tyrosine-protein kinase receptor Ret (Homo sapiens), P07949 [M918T] (P07949 whole entry M918T): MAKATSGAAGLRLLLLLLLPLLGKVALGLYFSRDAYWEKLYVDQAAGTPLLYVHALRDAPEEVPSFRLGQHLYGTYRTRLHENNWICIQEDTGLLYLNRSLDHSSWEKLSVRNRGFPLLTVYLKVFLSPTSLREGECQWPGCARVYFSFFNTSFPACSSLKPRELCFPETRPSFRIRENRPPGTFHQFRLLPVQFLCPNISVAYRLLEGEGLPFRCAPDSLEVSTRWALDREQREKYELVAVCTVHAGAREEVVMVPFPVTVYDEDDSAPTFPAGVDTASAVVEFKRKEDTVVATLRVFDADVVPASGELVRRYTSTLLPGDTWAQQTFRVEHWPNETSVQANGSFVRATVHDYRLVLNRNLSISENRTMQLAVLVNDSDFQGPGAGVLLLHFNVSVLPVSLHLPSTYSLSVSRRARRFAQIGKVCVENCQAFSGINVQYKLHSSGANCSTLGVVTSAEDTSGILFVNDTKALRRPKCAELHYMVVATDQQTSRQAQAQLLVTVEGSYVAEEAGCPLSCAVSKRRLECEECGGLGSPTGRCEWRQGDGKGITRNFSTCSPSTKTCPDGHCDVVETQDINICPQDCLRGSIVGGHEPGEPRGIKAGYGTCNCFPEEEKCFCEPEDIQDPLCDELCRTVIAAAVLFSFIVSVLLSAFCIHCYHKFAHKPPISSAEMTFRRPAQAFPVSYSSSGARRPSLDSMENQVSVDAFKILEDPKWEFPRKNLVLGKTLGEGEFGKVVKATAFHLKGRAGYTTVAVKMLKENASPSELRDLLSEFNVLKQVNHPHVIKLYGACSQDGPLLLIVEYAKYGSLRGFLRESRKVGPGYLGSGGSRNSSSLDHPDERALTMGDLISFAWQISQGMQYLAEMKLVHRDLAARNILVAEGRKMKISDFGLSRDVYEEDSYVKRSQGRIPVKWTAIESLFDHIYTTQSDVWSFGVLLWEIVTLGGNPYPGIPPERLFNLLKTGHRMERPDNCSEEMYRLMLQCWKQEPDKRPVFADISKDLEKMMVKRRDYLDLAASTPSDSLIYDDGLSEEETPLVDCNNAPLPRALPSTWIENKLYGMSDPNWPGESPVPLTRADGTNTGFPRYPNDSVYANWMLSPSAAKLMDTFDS

[3] = test system: Proto-oncogene tyrosine-protein kinase receptor Ret (Homo sapiens), P07949 [V804M]; experiment: as §1; conditions: at 10 µM
Chain of Proto-oncogene tyrosine-protein kinase receptor Ret (Homo sapiens), P07949 [V804M] (P07949 whole entry V804M): as the sequence (P07949 whole entry M918T) above, with V804M, T918M counted along it

[4] = test system: Proto-oncogene tyrosine-protein kinase receptor Ret (Homo sapiens), P07949 [V804L]; experiment: as §1; conditions: at 10 µM
Chain of Proto-oncogene tyrosine-protein kinase receptor Ret (Homo sapiens), P07949 [V804L] (P07949 whole entry V804L): as the sequence (P07949 whole entry M918T) above, with V804L, T918M counted along it

[5] = target: Proto-oncogene tyrosine-protein kinase receptor Ret (Homo sapiens, UniProt P07949); experiment: as §1; conditions: at 10 µM
Chain of Proto-oncogene tyrosine-protein kinase receptor Ret (P07949 whole entry): as the sequence (P07949 whole entry M918T) above, with T918M counted along it

[6] = target: Vasopressin V2 receptor (Homo sapiens, UniProt P30518); experiment: Selectivity interaction (Vasopressin V2 receptor binding assay, human recombinant ) EUB0000877a AVPR2
Chain of Vasopressin V2 receptor (P30518 whole entry): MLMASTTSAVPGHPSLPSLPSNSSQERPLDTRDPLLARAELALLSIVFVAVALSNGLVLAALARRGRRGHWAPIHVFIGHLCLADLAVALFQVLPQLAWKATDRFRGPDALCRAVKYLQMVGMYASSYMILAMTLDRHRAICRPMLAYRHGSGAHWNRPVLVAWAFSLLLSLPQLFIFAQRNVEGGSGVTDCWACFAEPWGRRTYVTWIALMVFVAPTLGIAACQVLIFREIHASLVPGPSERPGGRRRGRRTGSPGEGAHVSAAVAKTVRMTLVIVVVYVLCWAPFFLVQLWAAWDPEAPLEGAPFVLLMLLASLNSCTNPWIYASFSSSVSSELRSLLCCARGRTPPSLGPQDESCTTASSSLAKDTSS

[7] = target: cGMP-specific 3',5'-cyclic phosphodiesterase (Homo sapiens) (UniProt O76074); experiment: Selectivity interaction (Eurofins safety panel) EUB0001564a PDE5A; conditions: at 10 µM
[8] = target: Nav1.5 (SCN5A) (Homo sapiens, UniProt Q14524); experiment: Selectivity interaction (Panel of kinases, GPCRs, ion channels and transporters (enzymatic assay)) EUB0000266bCl SCN5A
[9] = target: Calcium/calmodulin-dependent protein kinase type 1D (Homo sapiens) (UniProt Q8IU85); conditions: at 10 µM
[10] = target: Tyrosine-protein kinase JAK2 (Homo sapiens, UniProt O60674); experiment: Selectivity interaction (Kinase panel (Invitrogen)) EUB0000639a JAK2; conditions: at 200 nM
[11] = target: T1, MAP/microtubule affinity-regulating kinase 4 (Homo sapiens) (UniProt Q96L34); experiment: Selectivity interaction (ActivX KiNativ screen (kinase selectivity in THP-1 cell lysates)) EUB0000639a MARK4; format: subcellular; conditions: lysate, at 5 µM
T1 sequence (whole entry): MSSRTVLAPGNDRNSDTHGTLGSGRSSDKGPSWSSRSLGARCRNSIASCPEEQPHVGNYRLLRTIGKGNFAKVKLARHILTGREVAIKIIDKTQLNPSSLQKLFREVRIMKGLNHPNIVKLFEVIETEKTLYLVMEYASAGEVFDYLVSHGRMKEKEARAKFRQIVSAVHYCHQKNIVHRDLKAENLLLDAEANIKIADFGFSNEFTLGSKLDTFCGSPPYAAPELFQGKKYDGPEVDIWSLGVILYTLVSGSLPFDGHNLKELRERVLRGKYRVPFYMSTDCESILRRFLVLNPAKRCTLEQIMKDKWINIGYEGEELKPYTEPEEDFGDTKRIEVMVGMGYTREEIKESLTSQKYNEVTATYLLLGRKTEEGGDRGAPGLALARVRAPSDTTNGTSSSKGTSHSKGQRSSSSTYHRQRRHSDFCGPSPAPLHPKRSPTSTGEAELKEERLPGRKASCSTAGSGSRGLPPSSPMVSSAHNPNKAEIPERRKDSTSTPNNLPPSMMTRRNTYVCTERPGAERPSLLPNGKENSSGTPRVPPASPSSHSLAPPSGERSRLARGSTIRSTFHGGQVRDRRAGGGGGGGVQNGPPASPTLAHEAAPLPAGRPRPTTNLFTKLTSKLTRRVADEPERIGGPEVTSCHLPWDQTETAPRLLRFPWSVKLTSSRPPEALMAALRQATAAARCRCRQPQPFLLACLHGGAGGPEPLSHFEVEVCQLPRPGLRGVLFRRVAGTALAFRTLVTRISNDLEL

[12] = target: Mitogen-activated protein kinase 6 (Homo sapiens) (UniProt Q16659); experiment: Selectivity interaction (ActivX KiNativ screen (kinase selectivity in THP-1 cell lysates)) EUB0000639a MAPK6; format: subcellular; conditions: lysate
Chain of Mitogen-activated protein kinase 6 (Homo sapiens) (Q16659 whole entry): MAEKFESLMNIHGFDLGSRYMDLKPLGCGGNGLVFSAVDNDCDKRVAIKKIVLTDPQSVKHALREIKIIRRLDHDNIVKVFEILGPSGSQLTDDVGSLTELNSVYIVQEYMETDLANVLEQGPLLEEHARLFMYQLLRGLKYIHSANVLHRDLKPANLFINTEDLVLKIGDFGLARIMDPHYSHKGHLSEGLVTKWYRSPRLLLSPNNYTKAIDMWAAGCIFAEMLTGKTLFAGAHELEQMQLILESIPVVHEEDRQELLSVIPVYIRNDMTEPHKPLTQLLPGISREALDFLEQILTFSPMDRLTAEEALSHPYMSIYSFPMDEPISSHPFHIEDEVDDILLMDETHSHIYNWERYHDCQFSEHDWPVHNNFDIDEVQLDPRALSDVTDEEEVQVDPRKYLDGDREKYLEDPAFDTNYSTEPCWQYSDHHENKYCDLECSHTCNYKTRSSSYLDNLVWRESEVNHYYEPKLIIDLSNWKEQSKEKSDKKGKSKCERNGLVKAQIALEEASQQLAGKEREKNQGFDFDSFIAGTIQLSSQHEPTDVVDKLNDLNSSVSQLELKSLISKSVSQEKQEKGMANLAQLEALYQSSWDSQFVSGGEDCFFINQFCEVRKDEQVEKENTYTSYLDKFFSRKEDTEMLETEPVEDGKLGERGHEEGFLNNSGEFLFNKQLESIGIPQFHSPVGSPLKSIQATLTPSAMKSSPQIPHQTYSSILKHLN

[13] = target: Serine/threonine-protein kinase 38-like (Homo sapiens) (UniProt Q9Y2H1); experiment: Selectivity interaction (Ambit KINOMEscan and KiNATiv profiling in Jurkat cells) EUB0000090b STK38L; format: cell-based; conditions: at 1 µM
Chain of Serine/threonine-protein kinase 38-like (Homo sapiens) (Q9Y2H1 2-464 limits assumed): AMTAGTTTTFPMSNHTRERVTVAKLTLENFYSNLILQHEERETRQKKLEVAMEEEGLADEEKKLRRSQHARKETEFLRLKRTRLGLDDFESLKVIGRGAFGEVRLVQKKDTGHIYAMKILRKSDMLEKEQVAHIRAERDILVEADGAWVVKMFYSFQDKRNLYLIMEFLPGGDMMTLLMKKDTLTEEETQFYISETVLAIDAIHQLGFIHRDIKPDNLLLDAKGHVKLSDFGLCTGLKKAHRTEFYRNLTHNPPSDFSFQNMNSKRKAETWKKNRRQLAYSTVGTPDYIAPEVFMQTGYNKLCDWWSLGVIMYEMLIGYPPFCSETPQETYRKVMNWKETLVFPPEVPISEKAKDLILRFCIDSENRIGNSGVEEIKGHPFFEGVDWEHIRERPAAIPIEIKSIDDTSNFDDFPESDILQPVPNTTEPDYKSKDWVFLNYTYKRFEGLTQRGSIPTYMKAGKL

[14] = target: Ribosomal protein S6 kinase alpha-3 (Homo sapiens, UniProt P51812); experiment: Selectivity interaction (Ambit KINOMEscan and KiNATiv profiling in Jurkat cells) EUB0000090b RPS6KA3; format: cell-based; conditions: at 1 µM
[15] = target: Calcium/calmodulin-dependent protein kinase type II subunit delta (Homo sapiens) (UniProt Q13557); experiment: Selectivity interaction (KinomeScan (DiscoverX)) EUB0000045b CAMK2D
Chain of Calcium/calmodulin-dependent protein kinase type II subunit delta (Homo sapiens) (Q13557 whole entry): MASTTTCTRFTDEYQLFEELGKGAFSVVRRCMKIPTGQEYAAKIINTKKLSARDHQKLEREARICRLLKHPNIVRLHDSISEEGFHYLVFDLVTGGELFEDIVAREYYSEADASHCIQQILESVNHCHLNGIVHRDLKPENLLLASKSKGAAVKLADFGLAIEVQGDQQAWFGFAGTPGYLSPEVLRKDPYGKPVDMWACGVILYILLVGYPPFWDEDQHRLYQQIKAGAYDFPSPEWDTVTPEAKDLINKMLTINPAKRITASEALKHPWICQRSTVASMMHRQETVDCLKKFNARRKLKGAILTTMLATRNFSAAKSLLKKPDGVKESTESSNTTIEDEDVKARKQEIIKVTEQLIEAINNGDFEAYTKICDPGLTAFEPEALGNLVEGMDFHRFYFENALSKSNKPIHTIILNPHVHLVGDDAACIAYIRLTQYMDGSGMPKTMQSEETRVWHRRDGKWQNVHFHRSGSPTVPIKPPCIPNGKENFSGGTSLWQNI

[16] = target: Tyrosine-protein kinase Lyn (Homo sapiens, UniProt P07948); experiment: Selectivity interaction (KinomeScan (DiscoverX)) EUB0000045b LYN
Chain of Tyrosine-protein kinase Lyn (P07948 2-512 limits assumed): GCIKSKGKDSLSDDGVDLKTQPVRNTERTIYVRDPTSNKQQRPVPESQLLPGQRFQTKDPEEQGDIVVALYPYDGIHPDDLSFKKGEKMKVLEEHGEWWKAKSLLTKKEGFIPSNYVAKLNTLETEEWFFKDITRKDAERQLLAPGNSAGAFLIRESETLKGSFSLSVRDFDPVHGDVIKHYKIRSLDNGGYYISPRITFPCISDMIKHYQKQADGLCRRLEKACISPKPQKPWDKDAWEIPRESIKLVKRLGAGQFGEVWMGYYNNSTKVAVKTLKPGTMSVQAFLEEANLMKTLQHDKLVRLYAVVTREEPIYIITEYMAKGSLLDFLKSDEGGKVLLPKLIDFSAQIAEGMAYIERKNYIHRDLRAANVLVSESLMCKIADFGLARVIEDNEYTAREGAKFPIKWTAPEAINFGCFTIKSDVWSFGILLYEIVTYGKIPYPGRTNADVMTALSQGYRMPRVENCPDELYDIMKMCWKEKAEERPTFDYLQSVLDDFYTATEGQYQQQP

[17] = target: Serine/threonine-protein kinase/endoribonuclease IRE1 (Homo sapiens) (UniProt O75460); experiment: Selectivity interaction (Kinase panel (KiNativ target engagement assay in Jurkat cells)) EUB0001635a ERN1; format: cell-based; conditions: Selectivity number of off-targets 0.0, Selectivity number of targets 233.0, Source Knowledge https://www.sciencedirect.com/science/article/pii/S2451945619300674?via%3Dihub, at 1 µM
Chain of Serine/threonine-protein kinase/endoribonuclease IRE1 (Homo sapiens) (O75460 19-977 limits assumed): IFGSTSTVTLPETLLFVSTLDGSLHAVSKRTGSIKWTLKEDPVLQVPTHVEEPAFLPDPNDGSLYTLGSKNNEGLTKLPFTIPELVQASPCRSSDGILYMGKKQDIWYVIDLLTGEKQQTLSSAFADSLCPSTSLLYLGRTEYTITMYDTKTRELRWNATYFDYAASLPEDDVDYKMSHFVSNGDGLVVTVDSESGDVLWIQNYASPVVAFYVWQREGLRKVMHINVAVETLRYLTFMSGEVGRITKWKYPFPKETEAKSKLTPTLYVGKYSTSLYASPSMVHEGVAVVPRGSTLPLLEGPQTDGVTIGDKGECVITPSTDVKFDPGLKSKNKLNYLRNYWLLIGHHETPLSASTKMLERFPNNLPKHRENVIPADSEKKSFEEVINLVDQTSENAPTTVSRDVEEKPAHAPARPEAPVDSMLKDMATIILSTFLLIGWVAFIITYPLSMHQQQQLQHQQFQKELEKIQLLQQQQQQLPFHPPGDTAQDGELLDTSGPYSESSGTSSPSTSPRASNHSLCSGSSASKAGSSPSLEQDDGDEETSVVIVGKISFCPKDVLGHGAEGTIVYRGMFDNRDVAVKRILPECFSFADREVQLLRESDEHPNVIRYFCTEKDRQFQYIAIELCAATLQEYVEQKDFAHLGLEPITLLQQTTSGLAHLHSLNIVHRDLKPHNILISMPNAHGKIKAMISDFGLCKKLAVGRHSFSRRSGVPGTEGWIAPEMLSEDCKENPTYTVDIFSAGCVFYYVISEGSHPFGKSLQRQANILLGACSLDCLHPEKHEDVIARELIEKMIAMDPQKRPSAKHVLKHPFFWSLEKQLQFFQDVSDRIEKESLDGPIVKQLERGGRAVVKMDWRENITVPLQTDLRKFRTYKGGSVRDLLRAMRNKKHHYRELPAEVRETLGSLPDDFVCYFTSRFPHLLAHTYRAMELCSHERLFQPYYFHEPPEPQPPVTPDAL

[18] = target: Ephrin type-A receptor 4 (Homo sapiens, UniProt P54764); experiment: Selectivity interaction (KinomeScan (DiscoverX)) EUB0000618a EPHA4; conditions: at 10 µM
[19] = target: Ribosomal protein S6 kinase alpha-6 (Homo sapiens, UniProt Q9UK32); experiment: Selectivity interaction (KinomeScan (DiscoverX)) EUB0000618a RPS6KA6; conditions: at 10 µM
[20] = target: Serine/threonine-protein kinase/endoribonuclease IRE1 (Homo sapiens) (UniProt O75460); experiment: Selectivity interaction (KinomeScan (DiscoverX)) EUB0001619a ERN1; conditions: at 1 µM

SMILES: CC(=O)c1cc(-c2ccccc2OCC2CC2)c2ncccn12
activity [1]: 21%

SMILES: O=C(NOC[C@H](O)CO)c1ccc(F)c(F)c1Nc1ccc(I)cc1F
% of control [2]: 79%
% of control [3]: 100%
% of control [4]: 93%
% of control [5]: 90%

IC50 [6]: > 30 µM
SMILES: CCC(=O)N1CC[C@H](Nc2ncnc3c2CN(c2cnc(OC)c(C(F)(F)F)c2)CC3)C1 [LENIOLISIB]

SMILES: CC[C@@H](Nc1c(C#N)c(-c2ccc(-c3cccc(C)c3F)cc2)nc2cnccc12)C(=O)O [BAY-091]
% of inhibition [7]: 62%

SMILES: CCn1c(-c2nc3cc(C(=O)N4CCCC(N)C4)ccc3n2C)cc2ccccc21 (stereo unspecified)
XC50 [8]: 31.6 µM

% of control [9]: 100%
SMILES: CCN(CC)CCCCNc1ncc2cc(-c3cc(OC)cc(OC)c3)c(NC(=O)NC(C)(C)C)nc2n1

% of inhibition [10]: 12.5%
% of inhibition [11]: 27.1%
% of inhibition ([12]; at 0.01 µM): -20%
% of inhibition ([12]; at 0.04 µM): -5.5%
% of inhibition ([12]; at 0.2 µM): -11.8%
% of inhibition ([12]; at 1 µM): -1.3%
% of inhibition ([12]; at 5 µM): -1%
SMILES: CC[C@@H]1[C@H](F)C(=O)N[C@@H]1COc1nccc2cc(C(N)=O)c(OC)cc12 [ZIMLOVISERTIB]

SMILES: CN(C)C/C=C/C(=O)Nc1ccc(C(=O)N2CCCC(Nc3ncc(Cl)c(-c4c[nH]c5ccccc45)n3)C2)cc1 (stereo unspecified)
% of control [13]: 82%
% of control [14]: 5%

SMILES: C=CC(=O)Nc1cc(-n2c(=O)ccc3cnc4ccc(-c5ccc(NS(C)(=O)=O)cc5)cc4c32)ccc1C
% of control ([15]; at 1 µM): 100%
% of control ([15]; at 10 µM): 92%
% of control ([16]; at 1 µM): 92%
% of control ([16]; at 10 µM): 91%

SMILES: C=CC(=O)Nc1ccc(C(=O)Nc2[nH]nc3c2CN(C(=O)N[C@H](CN(C)C)c2ccccc2)C3(C)C)cc1
% of engagement [17]: -0.9%

SMILES: O[C@H]1CC[C@H](Nc2ncc3nc(Nc4c(F)cc(F)cc4F)n([C@H]4CCOC4)c3n2)CC1
% of control [18]: 93%
% of control [19]: 13%

SMILES: N#Cc1cccc(-c2c[nH]c3ncnc(N4CCOCC4)c23)c1
% of control [20]: 74%
